Target: T1, TGFβ R1 (Homo sapiens, UniProt P36897)
T1 sequence (P36897 34-503): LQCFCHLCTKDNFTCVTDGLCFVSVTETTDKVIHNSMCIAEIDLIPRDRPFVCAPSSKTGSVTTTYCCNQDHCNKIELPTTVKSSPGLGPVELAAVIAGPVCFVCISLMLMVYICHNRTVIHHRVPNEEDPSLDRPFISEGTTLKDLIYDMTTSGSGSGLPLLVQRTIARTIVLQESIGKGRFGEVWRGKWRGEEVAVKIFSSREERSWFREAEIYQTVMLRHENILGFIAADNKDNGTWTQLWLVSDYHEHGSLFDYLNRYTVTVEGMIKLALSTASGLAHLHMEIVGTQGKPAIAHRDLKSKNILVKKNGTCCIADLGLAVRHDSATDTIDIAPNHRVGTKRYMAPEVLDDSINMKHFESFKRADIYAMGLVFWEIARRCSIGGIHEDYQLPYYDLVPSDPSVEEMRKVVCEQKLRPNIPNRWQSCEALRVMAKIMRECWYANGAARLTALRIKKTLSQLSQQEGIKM
Assay: TGFβ R1 autophosphorylation protocol (33P-ATP, phosphocellulose filter plate)
Format: biochemical
Conditions: 10 uM ATP, 170 nM TGFβ R1, room temperature 20 minutes, read-out: IC50 for Kinase Inhibition
Summary of the method: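 Radiometric autophosphorylation: 170 nM enzyme with compound (≤1% DMSO), 10 uM ATP plus γ-33P-ATP, […] in 20 mM MOPS pH 7, 20 min at room temperature. Reaction stopped on phosphocellulose filter, washed with H3PO4 and ethanol, counted by scintillation.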

Row | Compound | IC50
1 | COc1cnc(-c2cc(Cl)ccc2F)nc1Nc1cc[n+]([O-])cc1C(=O)NC[C@H](C)O [Compound 197, 4-[2-(5-Chloro-2-fluoro-phenyl)-5-methoxy-pyrimidin-4-ylamino]-N-(2-hydroxy-propyl)-1-oxy-nicotinamide] | 675 nM
2 | CC(O)CNC(=O)c1c[n+]([O-])ccc1Nc1nc(-c2cc(Cl)ccc2F)ncc1C(C)C (centres unmarked) [Compound 198, 4-[2-(5-Chloro-2-fluoro-phenyl)-5-isopropyl-pyrimidin-4-ylamino]-N-(2-hydroxy-propyl)-1-oxy-nicotinamide] | 148 nM
3 | COc1cnc(-c2cc(Cl)ccc2F)nc1Nc1ccncc1C(=O)NCCCCCNC(=O)CCCC[C@H]1SC[C@@H]2NC(=O)N[C@@H]21 [Compound 202, 4-[2-(5-Chloro-2-fluoro-phenyl)-5-methoxy-pyrimidin-4-ylamino]-N-{5-[5-(2-oxo-hexahydro-thieno[3,4-d]imidazol-6-yl)-pentanoylamino]-pentyl]-nicotinamide] | 54 nM
4 | COc1cnc(-c2cc(Cl)ccc2F)nc1Nc1ccncc1C(=O)N1CCOCC1 [Compound 203, {4-[2-(5-Chloro-2-fluoro-phenyl)-5-methoxy-pyrimidin-4-ylamino]-pyridin-3-yl}-morpholin-4-yl-methanone] | 176 nM
5 | CC(C)c1cnc(-c2cc(Cl)ccc2F)nc1Nc1ccncc1C(=O)NC[C@H](C)OC(=O)[C@H](C)N [Compound 204, 2-Amino-propionic acid 2-({4-[2-(5-chloro-2-fluoro-phenyl)-5-isopropyl-pyrimidin-4-ylamino]-pyridine-3-carbonyl}-amino)-1-methyl-ethyl ester] | 25 nM
6 | O=C(c1cnccc1Nc1nc(-c2cc(Cl)ccc2F)ncc1C1CCCC1)N1CC[C@H](O)C1 [Compound 212, {4-[2-(5-chloro-2-fluoro-phenyl)-5-cyclopentyl-pyrimidin-4-ylamino]-pyridin-3-yl}(3-hydroxy-pyrrolidin-1-yl)-methanone] | 673 nM
7 | CN1CCN(C(=O)c2cnccc2Nc2nc(-c3cc(Cl)ccc3F)ncc2C2CCCC2)CC1 [Compound 213, {4-[2-(5-Chloro-2-fluoro-phenyl)-5-cyclopentyl-pyrimidin-4-ylamino]-pyridin-3-yl}-(4-methyl-piperazin-1-yl)-methanone] | 12900 nM
8 | CC(C)c1cnc(-c2cc(Cl)ccc2F)nc1Nc1ccncc1C(=O)N1CCC[C@@H](O)C1 [Compound 217, {4-[2-(5-Chloro-2-fluoro-phenyl)-5-isopropyl-pyrimidin-4-ylamino]-pyridin-3-yl}-(3-hydroxy-piperidin-1-yl)-methanone] | 1210 nM
9 | COc1cnc(-c2cc(Cl)ccc2F)nc1Nc1ccncc1C(=O)N1CCC[C@@H](O)C1 [Compound 218, {4-[2-(5-Chloro-2-fluoro-phenyl)-5-methoxy-pyrimidin-4-ylamino]-pyridin-3-yl}-(3-hydroxy-piperidin-1-yl)-methanone] | 1780 nM
10 | O=C(c1cnccc1Nc1nc(-c2cc(Cl)ccc2F)ncc1C1CCCC1)N1CCOCC1 [Compound 227, {4-[2-(5-Chloro-2-fluoro-phenyl)-5-cyclopentyl-pyrimidin-4-ylamino]-pyridin-3-yl}-morpholin-4-yl-methanone] | 330 nM
11 | CC(C)c1cnc(-c2cc(Cl)ccc2F)nc1Nc1ccncc1C(=O)N1CCN[C@H](C)C1 [Compound 228, {4-[2-(5-Chloro-2-fluoro-phenyl)-5-isopropyl-pyrimidin-4-ylamino]-pyridin-3-yl}-(3-methyl-piperazin-1-yl)-methanone] | 2780 nM
12 | CC(C)c1cnc(-c2cc(Cl)ccc2F)nc1Nc1ccncc1C(=O)NC[C@H](C)OC(=O)CN [Compound 229, Amino-acetic acid 2-{[4-[2-(5-chloro-2-fluoro-phenyl)-5-isopropyl-pyrimidin-4-ylamino]-pyridine-3-carbonyl}-amino]-1-methyl-ethyl ester] | 19 nM
13 | CCOP(=O)(OCC)O[C@@H](C)CNC(=O)c1cnccc1Nc1nc(-c2cc(Cl)ccc2F)ncc1C(C)C [Compound 233, Phosphoric acid 2-{(4-[2-(5-chloro-2-fluoro-phenyl)-5-isopropyl-pyrimidin-4-ylamino]-pyridine-3-carbonyl}-amino)-1-methyl-ethyl ester diethyl ester] | 280 nM
14 | CC(C)c1cnc(-c2cc(Cl)ccc2F)nc1Nc1ccncc1C(=O)NC[C@H](C)OP(=O)(O)O [Compound 234, Phosphoric acid mono-[2-{[4-[2-(5-chloro-2-fluoro-phenyl}-5-isopropyl-pyrimidin-4-ylamino]-pyridine-3-carbony}-amino)-1-methyl-ethyl] ester] | 178 nM

The remaining compounds from weak to strong by IC50, led by results:

Row | IC50 | Compound
15 | 2470 nM | O=C(c1cnccc1Nc1nc(-c2cc(Cl)ccc2F)ncc1C1CCCC1)N1CCC[C@H](O)C1 [Compound 226, {4-[2-(5-Chloro-2-fluoro-phenyl)-5-cyclopentyl-pyrimidin-4-ylamino]-pyridin-3-yl}-(3-hydroxy-piperidin-1-yl)-methanone]
16 | 1620 nM | CC(C)c1cnc(-c2cc(Cl)ccc2F)nc1Nc1ccncc1C(=O)N1CCN(C)CC1 [Compound 208, {4-[2-(5-Chloro-2-fluoro-phenyl)-5-isopropyl-pyrimidin-4-ylamino]-pyridin-3-yl}-(4-methyl-piperazin-1-yl)-methanone]
17 | 1460 nM | COc1cnc(-c2cc(Cl)ccc2F)nc1Nc1ccncc1C(=O)N1CCC[C@H](O)C1 [Compound 221, {4-[2-(5-Chloro-2-fluoro-phenyl)-5-methoxy-pyrimidin-4-ylamino]-pyridin-3-yl}-(3-hydroxy-piperidin-1-yl)-methanone]
18 | 1140 nM | CC(C)c1cnc(-c2cc(Cl)ccc2F)nc1Nc1ccncc1C(=O)N1CCC(O)CC1 [Compound 230, {4-[2-(5-Chloro-2-fluoro-phenyl)-5-isopropyl-pyrimidin-4-ylamino)-pyridin-3-yl}-(4-hydroxy-piperidin-1-yl)-methanone]
19 | 1090 nM | CC(C)c1cnc(-c2cc(Cl)ccc2F)nc1Nc1ccncc1C(=O)N1CCN[C@@H](C(C)C)C1 [Compound 231, {4-[2-(5-Chloro-2-fluoro-phenyl)-5-isopropyl-pyrimidin-4-ylamino]-pyridin-3-yl}-(3-isopropyl-piperazin-1-yl)-methanone]
20 | 990 nM | CC(C)c1cnc(-c2cc(Cl)ccc2F)nc1Nc1ccncc1C(=O)N1CCNCC1 [Compound 232, {4-[2-(5-Chloro-2-fluoro-phenyl)-5-isopropyl-pyrimidin-4-ylamino]-pyridin-3-yl}-piperazin-1-yl-methanone]
21 | 283 nM | CC(C)c1cnc(-c2cc(Cl)ccc2F)nc1Nc1ccncc1C(=O)N1CCC[C@H](O)C1 [Compound 214, {4-[2-(5-Chloro-2-fluoro-phenyl)-5-isopropyl-pyrimidin-4-ylamino]-pyridin-3-yl}-(3-hydroxy-piperidin-1-yl)-methanone]
22 | 258 nM | COc1cnc(-c2cc(Cl)ccc2F)nc1Nc1ccncc1C(=O)N1CC[C@H](N)C1 [Compound 211, (3-Amino-pyrrolidin-1-yl)-{4-[2-(5-chloro-2-fluoro-phenyl)-5-methoxy-pyrimidin-4-ylamino]-pyridin-3-yl)-methanone]
23 | 249 nM | COc1cnc(-c2cc(Cl)ccc2F)nc1Nc1ccncc1C(=O)N1CC[C@H](F)C1 [Compound 220, {4-[2-(5-Chloro-2-fluoro-phenyl)-5-methoxy-pyrimidin-4-ylamino]-pyridin-3-yl}-(3-fluoro-pyrrolidin-1-yl)-methanone]
24 | 121 nM | CC(C)c1cnc(-c2cc(Cl)ccc2F)nc1Nc1ccncc1C(=O)N1CC[C@@H](F)C1 [Compound 210, {4-[2-(5-Chloro-2-fluoro-phenyl)-5-isopropyl-pyrimidin-4-ylamino]-pyridin-3-yl}-(3-fluoro-pyrrolidin-1-yl)-methanone]
25 | 72 nM | CC(C)c1cnc(-c2cc(Cl)ccc2F)nc1Nc1ccncc1C(=O)NC[C@H](C)OC(=O)[C@@H](N)C(C)C [Compound 206, 2-Amino-3-methyl-butyric acid 2-({4-[2-(5-chloro-2-fluoro-phenyl)-5-isopropyl-pyrimidin-4-ylamino]-pyridine-3-carbonyl}-amino)-1-methyl-ethyl ester]
26 | 68 nM | CC(C)c1cnc(-c2cc(Cl)ccc2F)nc1Nc1ccncc1C(=O)N1CC[C@H](N)C1 [Compound 209, (3-Amino-pyrrolidin-1-yl)-{4-[2-(5-chloro-2-fluoro-phenyl)-5-isopropyl-pyrimidin-4-ylamino]-pyridin-3-yl}-methanone]
27 | 44 nM | O=C(NCCCn1ccnc1)c1cnccc1Nc1nc(-c2cc(Cl)ccc2F)ncc1C1CCCC1 [Compound 219]
28 | 17 nM | CC(C)c1cnc(-c2cc(Cl)ccc2F)nc1Nc1ccncc1C(=O)NC[C@H](C)OC(=O)[C@H](N)C(C)C [Compound 207, 2-Amino-3-methyl-butyric acid 2-({4-[2-(5-chloro-2-fluoro-phenyl)-5-isopropyl-pyrimidin-4-ylamino]-pyridine-3-carbonyl}-amino)-1-methyl-ethyl-ester]
29 | 10 nM | CC(C)c1cnc(-c2cc(Cl)ccc2F)nc1Nc1ccncc1C(=O)NC[C@H](C)OC(=O)[C@@H](C)N [Compound 205, 2-Amino-propionic acid 2-({4-[2-(5-chloro-2-fluoro-phenyl)-5-isopropyl-pyrimidin-4-ylamino]-pyridine-3-carbonyl}-amino)-1-methyl-ethyl ester]
